According to patent publication US20060189539A1, “Novel GnRH analogues with antitumour effects and pharmaceutical compositions thereof” (priority 1994, published 2006):

Tests used:
[1] = system: MCF-7 and MDA-MB-231 cell lines; conditions: 30 μM
Experimental: The procedure of treatment was as follows. After trypsinization the cells, 400,000 cells of MCF-7, MDA-MB-231 human mammary carcinoma, PC3 human prostate carcinoma or Ishikawa human endometrium tumour each were passed into Petri dishes of 10 cm in diameter. Starting from the day following transfer, the cells were treated with the substances to be tested in solution prepared with the nutrient medium during the exponential growth phase. The cultures were treated with 1 to 50 μM (calculated for the total volume of the culture) of MI-1544 GnRH antagonist, MI-1892 chicken GnRH antagonist or SJ-1004 GnRH antagonist analogues as well as synthetic lamprey GnRH-III hormone in every two days and the cell count was determined on the 7th day.

MDA-MB-231 xenograft = test: In vivo antitumour effect on MDA-MB-231 xenograft; parameters: species or system immunosuppressed CBA/Ca mice
Experimental: The immunosuppression of mice was carried out by using the method of Steel et al. (1978).
CBA/Ca female mice of about 6 weeks old were thymectomized and then, after one week, they were irradiated with 60Co (whole body irradiation; the lethal dose is 9.5 Gray). Within 24 hours 3 to 5×10^5 myelocytes were injected to the animals. Beneath the skin of the immunosuppressed mice 2×10^7 tumour cells or, in the case of later passages, about 2 mm^3 of tumour cells or in the case of later, additional passages about 2 mm^3 of tumour pieces were implanted. […] The treatment with steroid hormone was stopped by at least one week before beginning the investigation.
Recent investigations have begun on 28 animals bearing MCF-7 xenograft .and on 28 animals bearing MDA-MB-231 xenograft. On animals bearing MCF-7 tumour the treatment was commenced in the 5th week following xeno-transplantation; the tumour volume was 205 to 225 mm^3. On animals bearing MDA-MB-231 tumour, the treatment was started in the 4th week after xeno-transplantation with a tumour volume of 140 to 150 mm^3. […] The control groups were daily treated with physiological saline s.c. (Each treated group consisted of 7 animals.)
A more recent study was started on 28 animals bearing. MDA-MB-231 xenograft. The treatment was begun in the 4th or 5th week following xenotransplantation. The tumour volume was 0.165 to 0.194 cm3. […] (For treatment of the control group, see the preceding Examples). Each group consisted of 7 animals.

ovulation of female rats = conditions: prolonged treatment for three cycles, even in high doses; cited from earlier work
[2] = system: Ishikawa endometrium tumour cell culture; test: Inhibition of colony formation (dose-survival), Example 48; format: cell-based, human; conditions: within the dose range used (1-50 μM)
Text: (§1) MCF-7 human mammary carcinoma cell line was stabilized in 1973 by Soule et al. from the pleural fluid of a patient suffering from mammary carcinoma. MDA-MB-231 human mammary carcinoma cell line was isolated and stabilized by Cailleau et al. in 1974 similarly from pleural fluid. Both cell lines grow in monolayer. MCF-7 and MDA-MB-231 human mammary carcinoma cell lines are maintained in plastic flasks (Greiner), in Dulbecco-modified Eagle-MEM (DMEM, GIBCO) liquid nutrient medium containing 10% of fetal calf serum. MCF-7 cell line is estradiol receptor (ER)-positive containing proteins specifically binding GnRH. Thus, it represents, a useful model system for investigating the direct effect of GnRH mediated by the GnRH receptor. Being ER-negative and GnRH receptor-positive, MDA-MB-231 cell line is similarly suitable to study the direct effect of GnRH. PC3 human prostate carcinoma cell line was stabilized in cell culture by Kaighn et al. in 1979. The cells are of epithelial type and form compact colonies in clonogenic assays. The Ishikawa cell line originates from human endometrial adenocarcinoma [M. Nishida et al.: Acta Obstet. Gynecol. Jpn. 37, 1103-1111 (1985)], it is epithelial in its character and contains steroid-as well as GnRH receptors.
(§2) The examination gives accurate information about the cell-damaging effect of the substance tested as a function of varying doses. The treatment was carried out once; the colonies formed from the surviving cells were counted after 8-12 days. […] A part of the arrested cells again entered the cycle, an other part of them might be destroyed (apoptosis). […] In the case of a dose-response investigation, colonies containing less than 15 cells were not counted. 300 cells were put into each Petri dishes of 3.5 cm in diameter. The treatment was once carried out 24 hours after setting, then the colonies formed were counted after 8-12 days. The cells were treated once after 24 hours with 1-50 μM of various GnRH analogues of Examples above or with 1-50 μM of GnRH-III, respectively. The percentages of inhibition obtained on MCF-7, MDA-MB-231, PC3 and Ishikawa cells, respectively, together with the dose of the active agent used are shown in Table VIII.

[3] = system: PC3 prostate tumour cell culture; test: as above; format: cell-based, human; conditions: 50 μM
Text: as §1, §2

[4] = system: LH release from rat hypophysis; conditions: superfusion; cited from earlier work
MCF-7 cells = test: Inhibition of cell division (cell count), Example 49; format: cell-based, human; conditions: MCF-7 (2x); 30 μM
Experimental: After being treated with trypsin, 300,000 each of MCF-7, MDA-MB-231, PC3 or Ishikawa cells, respectively, were passed into Petri dishes of 10 cm in diameter. Starting from the day following the setting, the cells were treated with 1-50 μM of the GnRH analogue in the exponential growth phase. During the experiment lasting for 5 days, the cells were treated in every two days with the peptide hormone dissolved in the nutrient medium, then the cell count was determined on the sixth day.

[5] = system: MCF-7 human mammary carcinoma cell line; test: Inhibition of colony formation (dose-survival), Example 48; format: cell-based; conditions: 50 μM
[6] = 1 × 100 μg daily s.c., week 6 (Table V)

Compound | Inhibition of cell proliferation [1] | Effect on the rate of tumour growth (MDA-MB-231 xenograft; 100 μg daily s.c.) | Tumour volume as control (%) (MDA-MB-231 xenograft; 1 × 100 μg daily s.c., week 4) | Tumour volume as control (%) (MDA-MB-231 xenograft; 1 × 100 μg daily s.c., week 6) | Inhibition % (MDA-MB-231 xenograft; [6]) | Tumour volume as control (%) (MDA-MB-231 xenograft; [6]) | Inhibition of ovulation (ovulation of female rats) | Inhibition of colony formation [2] | % Inhibition of colony formation [3] | LH-releasing effect compared with human GnRH [4] | % Inhibition of cell proliferation (MCF-7 cells) | % Inhibition of colony formation [5]
NCCCC[C@H](NC(=O)[C@H](Cc1c[nH]c2ccccc12)NC(=O)[C@H](CC(=O)O)NC(=O)[C@H](Cc1c[nH]cn1)NC(=O)[C@H](CO)NC(=O)[C@H](Cc1c[nH]c2ccccc12)NC(=O)[C@H](Cc1c[nH]cn1)NC(=O)[C@@H]1CCC(=O)N1)C(=O)N1CCC[C@H]1C(=O)NCC(N)=O [GnRH-III, reference compound] | 40-39% | did not inhibit the rate of tumour growth | 85% | 85% | 15% | 85% | did not inhibit the ovulation | did not inhibit | 21% | about thousand times weaker | – | –
Ac-D-Trp1,3,D-Cpa2,{Lys[n-poly(N-vinyl pyrrolidone-co-maleic acid)-]}5,[a-Asp(DEA)]6,D-Ala10-GnRH [Compound P-1892] | – | – | – | – | – | – | – | – | – | – | 0% | 26%
